Patent publication US20240299505A1, “COMPOSITION FOR IMPROVING, PREVENTING OR TREATING INFLAMMATORY BOWEL DISEASE COMPRISING NAMPT-DERIVED PEPTIDE AS ACTIVE INGREDIENT” (Industry-University Cooperation Foundation Hanyang …, priority 2023, published 2024)

Columns and labels:
[1] = system: DSS-induced acute colitis; experiment: DSS-induced acute colitis mouse model (Lenti-shNS or Lenti-shITG transduced); type: in vivo, C57BL/6 mice; conditions: Lenti-shNS-transduced mice
Procedure: FIG. 8 confirms an effect of rCT-NAMPT in mice with DSS-induced acute colitis. Specifically, (A) an experimental plan for an acute colitis model treated with rCT-NAMPT (50 μg/kg) and 3% DSS after introduction of Lenti-shNS or Lenti-shITG virus (left) and the survival rates of mice monitored for 12 days (right). Mortality was measured with n=15 mice per group. Statistical differences between rVehicle treated animals were recorded (log-rank test). […] (B) confirms a change in body weight of the experimental animals during an experiment period in (A) above (n=8). (C) is a colitis score result of the experimental animals in (A) above. […] (H) Results of hematoxylin and eosin (H&E) staining of the colon (left) (n=10): Representative radiohistopathology scores were evaluated using rVehicle, rCT, or rCT-NAMPT in 3% DSS-treated mice as illustrated in techniques (Materials and Methods). Statistical significance was evaluated using a Student's t-test using Bonferroni correction (***p<0.001) in comparison to rVehicle;
(§1) Dextran sodium sulfate (DSS)-induced acute or chronic colitis mouse models were constructed using 6-week-old C57BL/6 female mice (Samtako, Osan, Korea). […] The survival of mice was tracked for 12 days, and mortality was measured for n=15 mice per group. […] The survival of mice was tracked for 9 weeks, and mortality was measured for n=15 mice per group. […]

[2] = system: colonic tissues; conditions: mice with acute colitis, intraperitoneal injection, Cy5.5 conjugate
Procedure: The number of ITGA6+ or ITGB1+ cells was analyzed by FACS.
Mice were intravenously injected with a lentivirus expressing nonspecific shRNA (shNS) or shRNA specific for ITGA6 (sh ITGA6) or ITGB1 (shITGB1) 2 times and then orally administered with DSS (Acute or chronic Colitis) and rCT-NAMPT, and then experiments were performed.
Next, to evaluate the specificity of rCT-NAMPT, ITGA6- or ITGB1-knockdown mice were generated through sh-Lentiviral transduction. The mice were treated with DSS and administered rCT-NAMPT/Cy5.5 via intraperitoneal injection on day 6.

[3] = system: DSS-induced chronic colitis; experiment: DSS-induced chronic colitis mouse model; type: in vivo, C57BL/6 mice; conditions: 50 μg/kg i.p.
Procedure: FIG. 10 confirms an effect of rCT-NAMPT in mice with DSS-induced chronic colitis. Specifically, (A) Scheme of the chronic colitis model treated with rCT-NAMPT (50 μg/kg) and 3% DSS. (B) The survival of mice was tracked for 9 weeks, and mortality was calculated for n=15 mice per group. Statistical differences between rVehicle treated animals were recorded (log-rank test). […] (C) Weight loss of rVehicle, rCT or rCT-NAMPT treatment in mice was confirmed (n=15). (D) Image (upper) and length (lower) of colon in 3% DSS-induced chronic colitis mice with rVehicle, rCT or rCT-NAMPT. (E) H&E staining of the colon (left) (n=8): a representative image. H&E staining was used to evaluate histopathology scores in 3% DSS-induced chronic colitis mice treated with rVehicle, rCT, or rCT-NAMPT. […]
as §1
Body weight, degree of bloody stool, and stool concentration were measured every day during the colitis induction to obtain the clinical score. The clinical score was determined by two trained investigators who were not provided with information about the experiment. […]

Sequence: TWYKIAFQRNRK [rCT]
- survival rate / mortality ([1]; 3% DSS, 50 μg/kg i.p. 8 times, 12 days): Neither rVehicle or rCT significantly affected mortality
- colon histology (H&E staining) ([1]; DSS): disrupted by DSS
- tissue targeting (colon versus other organs) [2]: specifically targeted colonic tissues in mice with acute colitis, but not in other organs
- body weights [3]: Body weights fluctuated
